Assay results reported in patent publication US20030225123A1, “Antihypertensive agents and use” (priority 2003, published 2003).
Values joined by “and” are separate entries in the source; they are usually repeats but may differ in a detail not shown here. Equal values may be shown once.

Assays:
SHR = experiment: Antihypertensive effect (MABP by radiotelemetry) of CI-1027, amlodipine and their combination in SHR (Example 2); type: in vivo, rat
Procedure: The general procedure of Example 1 was followed to evaluate the antihypertensive efficacy of the carboxyalkylether CI-1027 alone and in combination with the calcium channel blocker amlodipine.
Male SHR (15-20 weeks old, Charles River Laboratories) were prepared with indwelling aortic catheters and radiotransmitters for continuous measurement of arterial blood pressure and heart rate. Animals were allowed food and water ad libitum. Before dosing all rats were given a minimum of 7 days for recovery from surgery.
The experiment was carried out over 22 days in 3 groups of SHR. Group I served as a control and received 2 mL/kg/day of vehicle (same as in Example 1) for 22 consecutive days. Group II, used to determined the antihypertensive response to amlodipine monotherapy, was given vehicle for the first 13 consecutive days. Then on Day 14, amlodipine was added at a dose of 0.3 mg/kg/day for 3 consecutive days. The dose was then increased to 1 mg/kg/day for the next 3 days, and on the final 3 days, 3 mg/kg/day was given. To determine the response to CI-1027 monotherapy, Group III received a 13-day treatment with CI-1027 monotherapy at a dose of 30 mg/kg/day. The antihypertensive response to the combination therapy was determined by the addition of amlodipine to ongoing CI-1027 treatment on Day 14.
Drugs were suspended or dissolved in vehicle that contains 96% water, 3% carboxymethocellulose, and 1% tween 88. Compounds were given at 9 AM daily by oral gavage in a volume of 2 mL/kg. The combination of CI-1027 and amlodipine was given as a single gavage in a volume of 2 mL/kg.

[1] = tested on: spontaneously hypertensive rats (SHR); experiment: Antihypertensive effect (MABP by radiotelemetry) of CI-1027, quinapril and their combination in SHR (Example 1); type: in vivo, rat
Procedure: The antihypertensive effects of the carboxyalkylether compound of Formula III (CI-1027), alone and in combination with an antihypertensive agent such as quinapril (CI-906), were evaluated in rats according to the following protocol. Male spontaneously hypertensive rats (SHR, 15-20 weeks old, Charles River Laboratories, Wilmington, Mass.) were prepared with indwelling aortic catheters and radiotransmitters (Data Sciences International, Saint Paul, Minn.). The radiotransmitters provided continuous measurement of aortic blood pressure waveform. From the aortic blood pressure waveform a Ponemah (Gould Instruments Inc, Valley View, Ohio) computer provided mean arterial blood pressure (MABP) and heart rate values continuously as one-minute averages. One-minute data was then summarized at 15-minute intervals using Excel (Microsoft Corporation, Redmond, Wash.) spreadsheets. Animals were allowed food and water ad libitum. To allow for recovery following surgery, rats were not dosed for a minimum of 7 days. Day 0 predose blood pressures were obtained by averaging eight 15-minute MABP measurements made 2 hours before dosing. To obtain the peak response to treatment (Days 0, 12, 16, 19, and 22), the 15-minute MABP measurements in the interval between 2 and 4 hours post-dose were averaged. Test compounds were given in a vehicle that contained 96% water, 3% carbomethocellulose (Sigma Chemical, Saint Louis, Mo.) and 1% tween […] (polyoxyethylenesorbitan monooleate, Sigma Chemical). CI-1027 and quinapril monotherapy were administered at 8:30 AM daily by oral gavage in a volume of 2 mL/kg. The combination of CI-1027 and quinapril was given as a single gavage in a volume of 2 mL/kg. The experiment was carried out over 22 days in 4 groups of animals. Group I served as a control and received 2 mL/kg/day of vehicle for 22 consecutive days. Group II, used to determine the antihypertensive response to quinapril monotherapy, was given vehicle for the first 12 to 13 consecutive days. Then on Day 13 to 14 quinapril was added at a dose of 0.3 mg/kg/day for 3 to 4 consecutive days; the dose was then increased to 1 mg/kg/day for the next 3 days, and on the final 3 days, 3 mg/kg/day was administered. To determine the response to CI-1027 monotherapy, Groups III and IV received 12-day treatment with CI-1027 monotherapy at doses of 30 and 100 mg/kg/day, respectively. To determine the antihypertensive response to the combination therapy quinapril, was added to the ongoing CI-1027 treatment (Day 13-14) using the rising dose protocol described for Group II (quinapril monotherapy). [table]

For `CCOC(=O)C1=C(COCCN)NC(C)=C(C(=O)OC)C1c1ccccc1Cl` (stereo not drawn) [Amlodipine, amlodipine], which “Peak MABP” value (SHR; Amlodipine 0.3 mg/kg/day oral, Day 16, 4-6 h postdose) is on record?
Its value is 140 ± 6 mm Hg.

And the “Peak MABP” value (SHR; Amlodipine 1 mg/kg/day oral, Day 19, 4-6 h postdose)?
The value was 131 ± 5 mm Hg.

What about the “Peak MABP” value (SHR; Amlodipine 3 mg/kg/day oral, Day 22, 4-6 h postdose) of the same molecule?
Its value is 114 mm Hg and 114 ± 5 mm Hg.

And the Threshold antihypertensive dose (SHR; amlodipine monotherapy (Group II), oral)?
Its Threshold antihypertensive dose is 1 mg/kg/day.

What does the source list for `CC(C)(CCCCOCCCCC(C)(C)C(=O)O)C(=O)O` [CI-1027]?
Peak MABP (SHR; CI-1027 30 mg/kg/day oral, Day 0, 4-6 h postdose): 129 ± 4 mm Hg; Peak MABP (SHR; CI-1027 30 mg/kg/day oral, Day 13, 4-6 h postdose, 30 mg/kg/day): 120 mm Hg and 120 ± 8 mm Hg; Effect of monotherapy on blood pressure (SHR; CI-1027 monotherapy 30 mg/kg/day, 13 days): lowers blood pressure in the SHR; Peak MABP ([1]; CI-1027 30 mg/kg/day oral, Day 0, 2-4 h postdose): 145 ± 4 mm Hg; Peak MABP ([1]; CI-1027 30 mg/kg/day oral, Day 12, 2-4 h postdose, 30 mg/kg/day): 131 mm Hg and 131 ± 3 mm Hg; Peak MABP ([1]; CI-1027 100 mg/kg/day oral, Day 0, 2-4 h postdose): 141 ± 4 mm Hg; Antihypertensive activity of monotherapy ([1]; CI-1027 monotherapy 30 and 100 mg/kg/day, 12 days): modest antihypertensive activity

Which results are given for `CCOC(=O)[C@H](CCc1ccccc1)N[C@@H](C)C(=O)N1Cc2ccccc2C[C@H]1C(=O)O` [Quinapril, quinapril]?
Peak MABP ([1]; Quinapril 0.3 mg/kg/day oral, Day 16, 2-4 h postdose): 122 ± 5 mm Hg; Peak MABP ([1]; Quinapril 1 mg/kg/day oral, Day 19, 2-4 h postdose): 121 ± 4 mm Hg; Peak MABP ([1]; Quinapril 3 mg/kg/day oral, Day 22, 2-4 h postdose): 117 mm Hg and 117 ± 4 mm Hg; Antihypertensive response at 3 mg/kg/day greater than at 0.3 mg/kg/day ([1]; Quinapril monotherapy, rising dose): 5 mm Hg
